Read-outs that look alike come from different tables or passages of the source.
Key:
DU-145 = assay: NCI-60 growth inhibition: DU-145 (Prostate Cancer); type: cell-based, human
OVCAR-5 = assay: NCI-60 growth inhibition: OVCAR-5 (Ovarian Cancer); type: cell-based, human
MDA-MB-468 = assay: NCI-60 growth inhibition: MDA-MB-468 (Breast Cancer); type: cell-based, human; details: MDA-MB-468 (Breast Cancer), read-out: GI50
SF-268 = assay: NCI-60 growth inhibition: SF-268 (CNS Cancer); type: cell-based, human
SNB-75 = assay: NCI-60 growth inhibition: SNB-75 (CNS Cancer); type: cell-based, human
UACC-257 = assay: NCI-60 growth inhibition: UACC-257 (Melanoma); type: cell-based, human
RPMI-8226 = assay: NCI-60 growth inhibition: RPMI-8226 (Leukemia); type: cell-based, human
LOX IMVI = assay: NCI-60 growth inhibition: LOX IMVI (Melanoma); type: cell-based, human
[1] = tested on: MV4-11 cell line (myelomonocytic leukemia); details: MV4-11 cells; for LD50, 7AAD (μM) 24 h / LD50, Alamar blue (μM) 24 h / LD50, YOPRO (μM) 24 h: MMB-TDZD analogs (Table 2); for LD50: values in text
MALME-3M = assay: NCI-60 growth inhibition: MALME-3M (Melanoma); type: cell-based, human
CAKI-1 = assay: NCI-60 growth inhibition: CAKI-1 (Renal Cancer); type: cell-based, human
COLO 205 = assay: NCI-60 growth inhibition: COLO 205 (Colon Cancer); type: cell-based, human
A498 = assay: NCI-60 growth inhibition: A498 (Renal Cancer); type: cell-based, human
SNB-19 = assay: NCI-60 growth inhibition: SNB-19 (CNS Cancer); type: cell-based, human
HS 578T = assay: NCI-60 growth inhibition: HS 578T (Breast Cancer); type: cell-based, human
OVCAR-3 = assay: NCI-60 growth inhibition: OVCAR-3 (Ovarian Cancer); type: cell-based, human
SK-MEL-28 = assay: NCI-60 growth inhibition: SK-MEL-28 (Melanoma); type: cell-based, human
ACHN = assay: NCI-60 growth inhibition: ACHN (Renal Cancer); type: cell-based, human
SN12C = assay: NCI-60 growth inhibition: SN12C (Renal Cancer); type: cell-based, human
T-47D = assay: NCI-60 growth inhibition: T-47D (Breast Cancer); type: cell-based, human
NCI-H23 = assay: NCI-60 growth inhibition: NCI-H23 (Non-Small-Cell Lung Cancer); type: cell-based, human
MDA-MB-435 = assay: NCI-60 growth inhibition: MDA-MB-435 (Melanoma); type: cell-based, human
NCI-H460 = assay: NCI-60 growth inhibition: NCI-H460 (Non-Small-Cell Lung Cancer); type: cell-based, human
BT-549 = assay: NCI-60 growth inhibition: BT-549 (Breast Cancer); type: cell-based, human
SW-620 = assay: NCI-60 growth inhibition: SW-620 (Colon Cancer); type: cell-based, human
OVCAR-8 = assay: NCI-60 growth inhibition: OVCAR-8 (Ovarian Cancer); type: cell-based, human
SK-MEL-5 = assay: NCI-60 growth inhibition: SK-MEL-5 (Melanoma); type: cell-based, human
HOP-92 = assay: NCI-60 growth inhibition: HOP-92 (Non-Small-Cell Lung Cancer); type: cell-based, human
OVCAR-4 = assay: NCI-60 growth inhibition: OVCAR-4 (Ovarian Cancer); type: cell-based, human
CCRF-CEM = assay: NCI-60 growth inhibition: CCRF-CEM (Leukemia); type: cell-based, human
MDA-MB-231/ATCC = assay: NCI-60 growth inhibition: MDA-MB-231/ATCC (Breast Cancer); type: cell-based, human
HT29 = assay: NCI-60 growth inhibition: HT29 (Colon Cancer); type: cell-based, human
IGROV1 = assay: NCI-60 growth inhibition: IGROV1 (Ovarian Cancer); type: cell-based, human
SK-MEL-2 = assay: NCI-60 growth inhibition: SK-MEL-2 (Melanoma); type: cell-based, human
HCT-15 = assay: NCI-60 growth inhibition: HCT-15 (Colon Cancer); type: cell-based, human
MCF7 = assay: NCI-60 growth inhibition: MCF7 (Breast Cancer); type: cell-based, human
UO-31 = assay: NCI-60 growth inhibition: UO-31 (Renal Cancer); type: cell-based, human
SR = assay: NCI-60 growth inhibition: SR (Leukemia); type: cell-based, human
EKVX = assay: NCI-60 growth inhibition: EKVX (Non-Small-Cell Lung Cancer); type: cell-based, human
SF-539 = assay: NCI-60 growth inhibition: SF-539 (CNS Cancer); type: cell-based, human
U251 = assay: NCI-60 growth inhibition: U251 (CNS Cancer); type: cell-based, human
NCI-H522 = assay: NCI-60 growth inhibition: NCI-H522 (Non-Small-Cell Lung Cancer)
HL-60(TB) = assay: NCI-60 growth inhibition: HL-60(TB) (Leukemia); type: cell-based, human; details: HL-60(TB) (Leukemia), read-out: GI50
PC-3 = assay: NCI-60 growth inhibition: PC-3 (Prostate Cancer); type: cell-based, human
786-0 = assay: NCI-60 growth inhibition: 786-0 (Renal Cancer); type: cell-based, human
MOLT-4 = assay: NCI-60 growth inhibition: MOLT-4 (Leukemia); type: cell-based, human
UACC-62 = assay: NCI-60 growth inhibition: UACC-62 (Melanoma); type: cell-based, human
TK-10 = assay: NCI-60 growth inhibition: TK-10 (Renal Cancer); type: cell-based, human
M14 = assay: NCI-60 growth inhibition: M14 (Melanoma); type: cell-based, human
HCT-116 = assay: NCI-60 growth inhibition: HCT-116 (Colon Cancer)

## C=C1C(=O)O[C@H]2[C@H]1CC/C(COC(=O)NCc1ccc(Cn3c(=O)sn(CCCCC)c3=O)cc1)=C\CC[C@@]1(C)O[C@@H]21 [BSK-218]
DU-145
  GI50: 1.68 µM
OVCAR-5
  GI50: 2.01 µM
MDA-MB-468
  GI50: 1.19 µM
SF-268
  GI50: 1.88 µM
SNB-75
  GI50: 1.59 µM
UACC-257
  GI50: 1.57 µM
RPMI-8226
  GI50: 1.12 µM
LOX IMVI
  GI50: 1.59 µM
[1]
  LD50, 7AAD (μM) 24 h: 1.3 µM
  LD50, Alamar blue (μM) 24 h: 0.8 µM
  LD50, YOPRO (μM) 24 h: 1.07 µM
  LD50: 760 nM
MALME-3M
  GI50: 1.61 µM
CAKI-1
  GI50: 2.84 µM
COLO 205
  GI50: 1.78 µM
A498
  GI50: 2.91 µM
SNB-19
  GI50: 5.06 µM
HS 578T
  GI50: 2.79 µM
OVCAR-3
  GI50: 1.41 µM
SK-MEL-28
  GI50: 1.85 µM
ACHN
  GI50: 1.68 µM
SN12C
  GI50: 1.71 µM
T-47D
  GI50: 1.75 µM
NCI-H23
  GI50: 1.94 µM
MDA-MB-435
  GI50: 1.71 µM
NCI-H460
  GI50: 3.42 µM
BT-549
  GI50: 1.91 µM
SW-620
  GI50: 1.31 µM
OVCAR-8
  GI50: 2.26 µM
SK-MEL-5
  GI50: 3.92 µM
HOP-92
  GI50: 1.38 µM
OVCAR-4
  GI50: 1.62 µM
CCRF-CEM
  GI50: 0.36 µM
MDA-MB-231/ATCC
  GI50: 1.72 µM
HT29
  GI50: 2.09 µM
IGROV1
  GI50: 2.11 µM
SK-MEL-2
  GI50: 2.42 µM
HCT-15
  GI50: 1.66 µM
MCF7
  GI50: 1.79 µM
UO-31
  GI50: 1.46 µM
SR
  GI50: 2.99 µM
EKVX
  GI50: 1.85 µM
SF-539
  GI50: 1.64 µM
U251
  GI50: 2.2 µM
NCI-H522; NCI-H522 (Non-Small-Cell Lung Cancer)
  GI50: 1.59 µM
HL-60(TB)
  GI50: 1.1 µM
PC-3
  GI50: 1.92 µM
786-0
  GI50: 1.98 µM
MOLT-4
  GI50: 5.9 µM
UACC-62
  GI50: 1.59 µM
TK-10
  GI50: 1.96 µM
M14
  GI50: 1.89 µM
HCT-116; HCT-116 (Colon Cancer)
  GI50: 1.73 µM

## C=C1C(=O)O[C@H]2[C@H]1CC/C(COC(=O)NCc1ccc(Cn3c(=O)sn(-c4ccc(OC)cc4)c3=O)cc1)=C\CC[C@@]1(C)O[C@@H]21 [BSK-271]
DU-145; Homo sapiens
  GI50: 1.81 µM
OVCAR-5; Homo sapiens
  GI50: 2.06 µM
MDA-MB-468; Homo sapiens
  GI50: 1.53 µM
SF-268; Homo sapiens
  GI50: 3.14 µM
SNB-75; Homo sapiens
  GI50: 3.44 µM
UACC-257; Homo sapiens
  GI50: 2.03 µM
RPMI-8226; Homo sapiens
  GI50: 2.01 µM
LOX IMVI; Homo sapiens
  GI50: 1.73 µM
[1]
  LD50, 7AAD (μM) 24 h: 1.74 µM
  LD50, Alamar blue (μM) 24 h: 1.20 µM
  LD50, YOPRO (μM) 24 h: 2.07 µM
  LD50: 680 nM
MALME-3M; Homo sapiens
  GI50: 1.81 µM
CAKI-1; Homo sapiens
  GI50: 2.34 µM
COLO 205; Homo sapiens
  GI50: 1.85 µM
A498; Homo sapiens
  GI50: 5.65 µM
SNB-19; Homo sapiens
  GI50: 11.7 µM
HS 578T; Homo sapiens
  GI50: 2.92 µM
OVCAR-3; Homo sapiens
  GI50: 1.61 µM
SK-MEL-28; Homo sapiens
  GI50: 1.97 µM
ACHN; Homo sapiens
  GI50: 1.73 µM
SN12C; Homo sapiens
  GI50: 2.14 µM
T-47D; Homo sapiens, T47D
  GI50: 1.86 µM
NCI-H23; Homo sapiens
  GI50: 2.97 µM
MDA-MB-435; Homo sapiens
  GI50: 1.83 µM
NCI-H460; Homo sapiens
  GI50: 3.7 µM
BT-549; Homo sapiens
  GI50: 4.37 µM
SW-620; Homo sapiens
  GI50: 1.77 µM
OVCAR-8; Homo sapiens
  GI50: 2.37 µM
SK-MEL-5; Homo sapiens
  GI50: 12 µM
HOP-92; Homo sapiens
  GI50: 1.61 µM
OVCAR-4; Homo sapiens
  GI50: 1.64 µM
CCRF-CEM; Homo sapiens
  GI50: 0.56 µM
MDA-MB-231/ATCC; Homo sapiens
  GI50: 1.97 µM
HT29; Homo sapiens, HT-29
  GI50: 1.96 µM
IGROV1; Homo sapiens, IGROV-1
  GI50: 2.85 µM
SK-MEL-2; Homo sapiens
  GI50: 3.19 µM
HCT-15; Homo sapiens
  GI50: 1.68 µM
MCF7; Homo sapiens
  GI50: 1.77 µM
UO-31; Homo sapiens
  GI50: 1.56 µM
SR; Homo sapiens
  GI50: 0.53 µM
EKVX; Homo sapiens
  GI50: 3.5 µM
SF-539; Homo sapiens
  GI50: 1.96 µM
U251; Homo sapiens, U-251
  GI50: 4.11 µM
NCI-H522; Homo sapiens, NCI-H522
  GI50: 1.67 µM
HL-60(TB); Homo sapiens
  GI50: 2.12 µM
PC-3; Homo sapiens
  GI50: 2.19 µM
786-0; Homo sapiens
  GI50: 2.05 µM
MOLT-4; Homo sapiens
  GI50: 1.93 µM
UACC-62; Homo sapiens
  GI50: 1.86 µM
TK-10; Homo sapiens
  GI50: 1.91 µM
M14; Homo sapiens
  GI50: 2.19 µM
HCT-116; Homo sapiens, HCT-116
  GI50: 1.93 µM
